pIC50: −log10 of the molar value.
Tested on: 233499-124-R-J3-PDC complex spheroid growth
Experiment: Anticancer human tumor 233499-124-R-J3-PDC patient-derived colon adenocarcinoma cell line growth inhibition [AhR]
Conditions: for pIC50: curve of first compound; for viability, T/C: stronger effect = lower value
Outline: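 Complex tumor spheroids co-cultured with HUVEC and human MSC stroma; AhR antagonists tested in combination with standard-of-care and investigational agents. Top concentration at or near clinical Cmax (else 10 microM), half-log dilutions; growth expressed as percent test/control.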

[1] = second compound 0.1 µM, first compound 0.00949 µM
[2] = second compound 0.1 µM, first compound 0.03 µM
[3] = second compound 0.1 µM, first compound 0.0949 µM
[4] = second compound 0.1 µM, first compound 0.3 µM
[5] = second compound 0.316 µM, first compound 0.00949 µM
[6] = second compound 0.316 µM, first compound 0.03 µM
[7] = second compound 0.316 µM, first compound 0.0949 µM
[8] = second compound 0.316 µM, first compound 0.3 µM
[9] = second compound 1 µM, first compound 0.00949 µM
[10] = second compound 1 µM, first compound 0.03 µM
[11] = second compound 1 µM, first compound 0.0949 µM
[12] = second compound 1 µM, first compound 0.3 µM
[13] = second compound 3.16 µM, first compound 0.00949 µM
[14] = second compound 3.16 µM, first compound 0.03 µM
[15] = second compound 3.16 µM, first compound 0.0949 µM
[16] = second compound 3.16 µM, first compound 0.3 µM
[17] = second compound 10 µM, first compound 0.00949 µM
[18] = second compound 10 µM, first compound 0.03 µM
[19] = second compound 10 µM, first compound 0.0949 µM
[20] = second compound 10 µM, first compound 0.3 µM
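Further: spheroids exposed to agents for seven days before reading.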

## CC1COCCN1c1cc(C2(S(C)(=N)=O)CC2)nc(-c2ccnc3[nH]ccc23)n1 (stereo not given) + Cc1ccccc1N=Nc1ccc(NC(=O)c2ccnn2C)c(C)c1
Second compound 0.1 µM
  pIC50: < 5.00
Second compound 0.316 µM
  pIC50: < 5.00
Second compound 1 µM
  pIC50: < 5.00
Second compound 3.16 µM
  pIC50: < 5.00
Second compound 10 µM
  pIC50: < 5.00
Second compound 0.1 µM, first compound 0.0316 µM
  viability, T/C: 103%
Second compound 0.1 µM, first compound 0.1 µM
  viability, T/C: 112%
Second compound 0.1 µM, first compound 0.316 µM
  viability, T/C: 91.2%
Second compound 0.1 µM, first compound 1 µM
  viability, T/C: 97.8%
Second compound 0.1 µM, first compound 3.16 µM
  viability, T/C: 88.8%
Second compound 0.1 µM, first compound 10 µM
  viability, T/C: 91%
Second compound 0.316 µM, first compound 0.0316 µM
  viability, T/C: 113%
Second compound 0.316 µM, first compound 0.1 µM
  viability, T/C: 107%
Second compound 0.316 µM, first compound 0.316 µM
  viability, T/C: 94.5%
Second compound 0.316 µM, first compound 1 µM
  viability, T/C: 99.7%
Second compound 0.316 µM, first compound 3.16 µM
  viability, T/C: 96.6%
Second compound 0.316 µM, first compound 10 µM
  viability, T/C: 85%
Second compound 1 µM, first compound 0.0316 µM
  viability, T/C: 103%
Second compound 1 µM, first compound 0.1 µM
  viability, T/C: 100%
Second compound 1 µM, first compound 0.316 µM
  viability, T/C: 104%
Second compound 1 µM, first compound 1 µM
  viability, T/C: 97.6%
Second compound 1 µM, first compound 3.16 µM
  viability, T/C: 77.7%
Second compound 1 µM, first compound 10 µM
  viability, T/C: 74.2%
Second compound 3.16 µM, first compound 0.0316 µM
  viability, T/C: 112%
Second compound 3.16 µM, first compound 0.1 µM
  viability, T/C: 110%
Second compound 3.16 µM, first compound 0.316 µM
  viability, T/C: 105%
Second compound 3.16 µM, first compound 1 µM
  viability, T/C: 101%
Second compound 3.16 µM, first compound 3.16 µM
  viability, T/C: 99.7%
Second compound 3.16 µM, first compound 10 µM
  viability, T/C: 84.1%
Second compound 10 µM, first compound 0.0316 µM
  viability, T/C: 108%
Second compound 10 µM, first compound 0.1 µM
  viability, T/C: 107%
Second compound 10 µM, first compound 0.316 µM
  viability, T/C: 118%
Second compound 10 µM, first compound 1 µM
  viability, T/C: 106%
Second compound 10 µM, first compound 3.16 µM
  viability, T/C: 109%
Second compound 10 µM, first compound 10 µM
  viability, T/C: 77.8%

## Nc1ncn(C2CC(O)C(CO)S2)c(=O)n1 (stereo not given) + Cc1ccccc1N=Nc1ccc(NC(=O)c2ccnn2C)c(C)c1
Second compound 0.1 µM
  pIC50: < 6.52
Second compound 0.316 µM
  pIC50: < 6.52
Second compound 1 µM
  pIC50: < 6.52
Second compound 3.16 µM
  pIC50: < 6.52
Second compound 10 µM
  pIC50: < 6.52
Second compound 0.1 µM, first compound 0.000949 µM
  viability, T/C: 91.9%
Second compound 0.1 µM, first compound 0.003 µM
  viability, T/C: 103%
[1]
  viability, T/C: 87.7%
[2]
  viability, T/C: 108%
[3]
  viability, T/C: 109%
[4]
  viability, T/C: 111%
Second compound 0.316 µM, first compound 0.000949 µM
  viability, T/C: 99.1%
Second compound 0.316 µM, first compound 0.003 µM
  viability, T/C: 114%
[5]
  viability, T/C: 96.3%
[6]
  viability, T/C: 107%
[7]
  viability, T/C: 105%
[8]
  viability, T/C: 84.7%
Second compound 1 µM, first compound 0.000949 µM
  viability, T/C: 110%
Second compound 1 µM, first compound 0.003 µM
  viability, T/C: 114%
[9]
  viability, T/C: 95%
[10]
  viability, T/C: 114%
[11]
  viability, T/C: 116%
[12]
  viability, T/C: 101%
Second compound 3.16 µM, first compound 0.000949 µM
  viability, T/C: 101%
Second compound 3.16 µM, first compound 0.003 µM
  viability, T/C: 108%
[13]
  viability, T/C: 107%
[14]
  viability, T/C: 107%
[15]
  viability, T/C: 109%
[16]
  viability, T/C: 107%
Second compound 10 µM, first compound 0.000949 µM
  viability, T/C: 104%
Second compound 10 µM, first compound 0.003 µM
  viability, T/C: 99.3%
[17]
  viability, T/C: 107%
[18]
  viability, T/C: 113%
[19]
  viability, T/C: 94.8%
[20]
  viability, T/C: 99.3%

## O=C(C=Cn1cnc(-c2cc(C(F)(F)F)cc(C(F)(F)F)c2)n1)NNc1cnccn1 + Cc1ccccc1N=Nc1ccc(NC(=O)c2ccnn2C)c(C)c1
Second compound 0.1 µM
  pIC50: < 5.52
Second compound 0.316 µM
  pIC50: < 5.52
Second compound 1 µM
  pIC50: < 5.52
Second compound 3.16 µM
  pIC50: < 5.52
Second compound 10 µM
  pIC50: < 5.52
[1]
  viability, T/C: 109%
[2]
  viability, T/C: 91.2%
[3]
  viability, T/C: 110%
[4]
  viability, T/C: 86.7%
Second compound 0.1 µM, first compound 0.949 µM
  viability, T/C: 96%
Second compound 0.1 µM, first compound 3 µM
  viability, T/C: 61%
[5]
  viability, T/C: 104%
[6]
  viability, T/C: 113%
[7]
  viability, T/C: 111%
[8]
  viability, T/C: 96.4%
Second compound 0.316 µM, first compound 0.949 µM
  viability, T/C: 87.3%
Second compound 0.316 µM, first compound 3 µM
  viability, T/C: 76.8%
[9]
  viability, T/C: 97.8%
[10]
  viability, T/C: 98.3%
[11]
  viability, T/C: 116%
[12]
  viability, T/C: 100%
Second compound 1 µM, first compound 0.949 µM
  viability, T/C: 78%
Second compound 1 µM, first compound 3 µM
  viability, T/C: 77.8%
[13]
  viability, T/C: 98%
[14]
  viability, T/C: 99.1%
[15]
  viability, T/C: 92.8%
[16]
  viability, T/C: 86.8%
Second compound 3.16 µM, first compound 0.949 µM
  viability, T/C: 93.2%
Second compound 3.16 µM, first compound 3 µM
  viability, T/C: 70.8%
[17]
  viability, T/C: 101%
[18]
  viability, T/C: 85%
[19]
  viability, T/C: 85.3%
[20]
  viability, T/C: 108%
Second compound 10 µM, first compound 0.949 µM
  viability, T/C: 85.6%
Second compound 10 µM, first compound 3 µM
  viability, T/C: 50.2%

From PubChem BioAssay AID1918993 (Molecular Pharmacology Branch, DTP, NCI, 2023)
